The source of these data is the NIST ThermoML archive (doi:10.1016/j.jct.2009.10.007).

The nature of the series: refractive index (Na D-line) (dimensionless); mn = molality of the nth substance listed, in mol/kg. The conditions noted are these: 308.15 K, 101 kPa, Liquid, Standard Abbe refractometry.

± gives the expanded uncertainty stated by the source.

In the case of `O=C([O-])CC(O)(CC(=O)[O-])C(=O)[O-].[Na+].[Na+].[Na+]` [trisodium citrate] + O, the refractive index stood at 1.3328 ± 0.0005 (m1 = 0.034); 1.3345 ± 0.0005 (m1 = 0.0682); 1.3361 ± 0.0005 (m1 = 0.1015); 1.3379 ± 0.0005 (m1 = 0.1424); 1.3393 ± 0.0005 (m1 = 0.1771); 1.341 ± 0.0005 (m1 = 0.2157). Further, the refractive index (m1 = 0.2524) is listed as 1.3425 ± 0.0005, the refractive index (m1 = 0.2847) amounted to 1.3438 ± 0.0005, the refractive index (m1 = 0.3319) stood at 1.3456 ± 0.0005 and the refractive index (m1 = 0.3674) was 1.3469 ± 0.0005.

On to `O` [water] + CCCCn1cc[n+](C)c1.[Br-], for which the refractive index (m2 = 0) came out at 1.3311 ± 0.0005.

For the compound `O` [water] + O=C([O-])CC(O)(CC(=O)[O-])C(=O)[O-].[Na+].[Na+].[Na+], the refractive index (m2 = 0) is given as 1.3311 ± 0.0005.

By refractive index is commonly meant the speed of light in vacuum divided by its phase velocity in the sample.
